Like-named read-outs stand apart in the source and are kept apart here.
Tests used:
[1] = cited from earlier work
[2] = Blood THC concentration versus time after smoking; type: in vivo; details: about an hour after smoking cessation
Experimental: (§1) The high lipid solubility of cannabinoids results in their persisting in the body for long periods of time. Even after a single administration of THC, detectable levels of THC can be found in the body for weeks or longer. […] There are three accepted laboratory methods for detecting THC in individuals that have smoked or ingested marijuana: (1) urine testing, for which passive inhalation up to 22 minutes for infrequent users can be detected for 7-10 days after inhalation, with longer periods for heavy users, (2) hair testing, with THC being detectible for up to 90 days after inhalation, and (3) blood and oral fluid testing, for which THC can be detected for 2-24 hours after use in most cases, but for up to 2 weeks in some heavy users. A detailed investigation of the relationship between time after marijuana smoking and relative subject impairment provides an estimate of the relative degree of impairment (defined under Standardized Field Sobriety Tests) as a function of time after smoking various smoke concentrations of THC is shown in Table 1.

subjects [3] = assay: Percent of impaired subjects by Standardized Field Sobriety Tests after smoking; type: in vivo; details: about an hour after smoking cessation
Experimental: as §1

[4] = cited from earlier work; remark: listed apart in the source
subjects [5] = details: cited from earlier work
[6] = dose 1.74% THC smoked, Time 1 (0-5 mins) after smoking
[7] = dose 1.74% THC smoked, Time 2 (50-55 mins) after smoking
[8] = dose 1.74% THC smoked, Time 3 (100-105 mins) after smoking
[9] = dose 2.93% THC smoked, Time 1 (0-5 mins) after smoking
[10] = dose 2.93% THC smoked, Time 2 (50-55 mins) after smoking
[11] = dose 2.93% THC smoked, Time 3 (100-105 mins) after smoking

## CCCCCc1cc(O)c2c(c1)OC(C)(C)[C@@H]1CCC(C)=C[C@@H]21 [THC, delta-9-tetrahydrocannabinol]
[1]; [6]
  Blood THC: 55.5 ng/mL
[1]; [7]
  Blood THC: 6.8 ng/mL
[1]; [8]
  Blood THC: 3.7 ng/mL
[1]; [9]
  Blood THC: 70.6 ng/mL
[1]; [10]
  Blood THC: 6.2 ng/mL
[1]; [11]
  Blood THC: 3.2 ng/mL
[2]
  blood content of THC relative to its initial value: ~10%
Subjects [3]
  relative degree of impairment relative to its initial value: about half
[4]; most cases
  time THC can be detected after use, blood and oral fluid testing: 2 to 24 h
[4]; some heavy users
  time THC can be detected after use, blood and oral fluid testing: up to 2 weeks
[4]; hair
  time THC is detectible after inhalation, hair testing: up to 90 days
[4]; urine, infrequent users, passive inhalation up to 22 minutes
  time THC can be detected after inhalation, urine testing: 7 to 10 days
Subjects [5]; [6]
  % impaired: 23%
Subjects [5]; [7]
  % impaired: 23%
Subjects [5]; [8]
  % impaired: 15%
Subjects [5]; [9]
  % impaired: 46%
Subjects [5]; [10]
  % impaired: 41%
Subjects [5]; [11]
  % impaired: 28%
